The test system of one assay is Male DBA/2J mice. In words: Novelty-suppressed feeding (NSF) test. It is filed as in vivo. Particulars: 10 mg/kg orally for 28 days. As for the experimental part: The novelty-suppressed feeding (NSF) test (Santarelli et al., 2003, Science. 301: 805-9) was performed to assess antidepressant efficacy of T-817MA. Male DBA/2J mice (7 weeks old, 20-21 animals/group) were used. We administrated mice orally with T-817MA (10 mg/kg), or vehicle (distilled water) for 28 days before NSF test. At the time of testing, mice that had been food deprived for 24 hours were gently placed in a corner of a brightly lit arena (approximately 650 lux at floor of arena, 50×50×20 cm) for a maximum of 5 minutes. The floor was covered with approximately 2 cm of bedding. Pellet of food was attached by wire at the center of the arena. […] Statistical differences between vehicle group and T-817MA treated group were found by Dunnett test.

Assay [1] relates to cultured neural stem cells. In words: Effect on differentiation of cultured neural stem cell (Tuj1-positive cell ratio). The format is cell-based, ICR mouse. How it is done:
Cultured neural stem cells were prepared according to the partially modified method of Hirabayashi (Development, 2004, 131(12), p. 2791-2801). The cerebrum was removed from an ICR mouse embryo (embryonic day 14) and incubated in artificial cerebrospinal fluid (124 mM NaCl, 5 mM KCl, 1.3 mM MgCl2, 2 mM CaCl2, 26 mM NaHCO3, 10 mM D-Glucose, pH 7.4) containing 0.0625% trypsin and 0.1 mg/mL of DNaseI at 37° C. for 5 min. A trypsin inhibitor (final concentration: 0.35 mg/mL) was then added and the mixture was centrifuged at 800 rpm for 5 min. The obtained pellet was dispersed by pipetting in a neural stem cell culture medium (DMEM/F-12 culture medium containing 20 ng/mL basic fibroblast growth factor, 20 ng/mL epidermal growth factor and B27 supplement (Invitrogen)) to obtain single cell suspension. […]
After 3 days of culturing, the cells were washed with phosphate-buffered saline (PBS), fixed with 4% paraformaldehyde/phosphate buffer, treated with 0.3% Triton X-100/PBS solution at room temperature for 5 minutes, washed with PBS, and incubated with 0.5% skim milk at room temperature for 1 hour. […] The cells were washed with PBS and observed under fluorescence microscope, and the number of the Tuj1-positive cells emitting red fluorescence was counted, and its ratio against the total cell number was calculated as the differentiation ratio into neurons representing a neurogenesis inducing effect.

In assay [2] the test system is cultured neural stem cells. Particulars: Proc. Natl. Acad. Sci. U.S.A., 2004, 101(47), pp. 16659-64; cited from earlier work.

Turning to `OC1CN(CCCOCCc2ccc3sccc3c2)C1` [T-817MA, 1-(3-(2-(1-benzothiophen-5-yl)ethoxy)propyl)azetidin-3-ol], the “NSF latency (mean)” value in the assay with Male DBA/2J mice (mice food deprived 24 hours, vehicle 227.2) was 145.5 s. Moreover, in the assay on Male DBA/2J mice (P<0.01, Dunnett test), the “Latency to feed vs vehicle group” value is “significant decreased latency to feed”. Also, in assay [1] (T-817MA 10 μM vs B27 supplemented DMEM/F-12 alone), the “Differentiation ratio compared with control group (neurogenesis inducing effect)” value was “higher differentiation ratio”. The “Differentiation ratio into neurons (%) (Ratio of Tuj1 positive cells)” value in assay [1] (T-817MA 10 μM, 3 days of culturing, B27-supplemented DMEM/F-12, control group 13.0) came out at 27.4%.
As to `CCCC(CCC)C(=O)O` [valproic acid], in assay [2], the “Neurogenesis inducing effect in cultured neural stem cells” value is recorded as “show the neurogenesis inducing effect”.
